“And” between values parts separate entries of the source, which are not always exact repeats. Equal entries are not always repeated. Where two headings read alike, the source gives them in different places. Each block holds one compound with its values, some of them ahead of it.
Molecular target: T1, CETP (Homo sapiens, UniProt P11597)
T1 construct: made in house; host or cells: CHO cells (serum-free conditioned medium)
T1 sequence (P11597 18-493): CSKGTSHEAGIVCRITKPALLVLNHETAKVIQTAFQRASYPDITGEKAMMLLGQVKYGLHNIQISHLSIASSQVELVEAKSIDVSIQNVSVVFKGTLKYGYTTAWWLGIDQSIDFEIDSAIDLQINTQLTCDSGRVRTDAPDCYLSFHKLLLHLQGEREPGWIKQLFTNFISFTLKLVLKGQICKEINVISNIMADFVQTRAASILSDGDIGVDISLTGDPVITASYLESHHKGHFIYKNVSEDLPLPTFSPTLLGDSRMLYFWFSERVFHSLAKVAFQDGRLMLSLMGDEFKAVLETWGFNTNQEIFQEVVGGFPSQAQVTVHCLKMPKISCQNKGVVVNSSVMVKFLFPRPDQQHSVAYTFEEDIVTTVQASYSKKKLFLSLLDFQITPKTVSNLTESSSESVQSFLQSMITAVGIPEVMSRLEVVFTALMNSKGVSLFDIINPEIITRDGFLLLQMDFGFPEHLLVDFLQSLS
Test: CETP activity in vitro: transfer of [3H]CE from HDL donor to LDL acceptor particles
Assay type: biochemical
Procedure: The ability of compounds to inhibit CETP were assessed using an in vitro assay that measured the rate of transfer of radiolabeled cholesteryl ester ([^3H]CE) from HDL donor particles to LDL acceptor particles. Details of the assay are provided by Glenn et al. (“Quantification of Cholesteryl Ester Transfer Protein (CETP): A) CETP Activity and B) Immunochemical Assay of CETP Protein,” Meth. Enzymol., Glenn and Melton (Meth. Enzymol., 263, 339-351 (1996), which is incorporated herein by reference). CETP was obtained from the serum-free conditioned medium of CHO cells transfected with a cDNA for CETP (Wang, S. et al. J. Biol Chem. 267, 17487-17490 (1992), which is incorporated herein by reference).
To measure CETP activity, [^3H]CE-labeled HDL, LDL, CETP and assay buffer (50 mM tris(hydroxymethyl)amino-methane, pH 7.4; 150 mM sodium chloride; 2 mM ethylenediamine-tetraacetic acid; 1% bovine serum albumin) were incubated in a volume of 200 μl, for 2 hours at 37° C. in 96 well plates. LDL was differentially precipitated by the addition of 50 μl of 1% (w/v) dextran sulfate/0.5 M magnesium chloride, mixed by vortex, and incubated at room temperature for 10 minutes The solution (200μl) was transferred to a filter plate (Millipore). After filtration, the radioactivity present in the precipitated LDL was measured by liquid scintillation counting.
This value was defined as the IC50.

[1] = IC50(μm), 50% inhibition of [3H]CE transfer from HDL to LDL, 2 hours at 37° C.
[2] = 50% inhibition of [3H]CE transfer from HDL to LDL, 2 hours at 37° C.; read-out: IC50(μm)
[3] = 2 h; read-out: % Transfer @ 100 μm

- IC50 [2]: 70 µM
Structure (SMILES): COC(=O)c1c(C(F)F)nc(C(F)(F)F)c(C(N)=S)c1CC(C)C [Compound 77, Methyl 2-(Difluoromethyl)-4-(2-methylpropyl)-5-(aminothionocarbonyl)-6-(trifluoromethyl) -3-pyridinecarboxylate]

- IC50 [2]: 80 µM
Structure (SMILES): COC(=O)c1c(C(F)F)nc(C(F)(F)F)c(CCl)c1CC(C)C [Compound 83, Methyl 5-Chloromethyl-2-(difluoromethyl)-4-(2-methylpropyl)-6-(trifluoromethyl)-3-pyridinecarboxylate]

- remaining activity at 100 µM [3]: 75%
Structure (SMILES): COC(=O)c1c(C(F)F)nc(C(F)(F)F)c(C2CC(C)N(O)C2)c1CC1CC1 (stereo not drawn) [Compound 107, Methyl 4-(Cyclopropylmethyl)-2-(difluoromethyl)-5-(1-hydroxy-5-methyl-3-pyrrolidinyl)-6-(trifluoromethyl)-3-pyridinecarboxylate]

- remaining activity at 100 µM [3]: 78%
Structure (SMILES): COC(=O)c1c(C(F)F)nc(C(F)(F)F)c(C(=N)SC)c1CC1CC1 [Compound 112, Methyl 4-(Cyclopropylmethyl)-2-(difluoromethyl)-5-[imino(methylthio)methyl]-6-(trifluoromethyl)-3-pyridinecarboxylate]

- remaining activity at 100 µM [3]: 84%
Structure (SMILES): COC(=O)c1c(C(F)F)nc(C(F)(F)F)c(C(N)=S)c1C1CCC1 [Compound 119, Methyl 5-(aminothioxomethyl)-4-(cyclobutyl)-2-(difluoromethyl)-6-(trifluoromethyl)-3-pyridinecarboxylate]

- % transfer at 10 μm (10 μm): 15^D %
Structure (SMILES): COC(=O)c1c(C(F)F)nc(C(F)(F)F)c(SC(C)OC)c1CC(C)C (stereo not drawn) [Compound 147, Methyl 2-(Difluoromethyl)-4-(2-methylpropyl)-5-(1-methoxyethylthio)-6-(trifluoromethyl)-3-pyridinecarboxylate]

- % transfer at 10 μm (10 μm): 32^D %
Structure (SMILES): COC(=O)c1c(C(F)F)nc(C(F)(F)F)c(SCCF)c1CC(C)C [Compound 148, Methyl 2-(Difluoromethyl)-5-(2-fluoroethylthio)4-(2-methylpropyl)-6-(trifluoromethyl)-3-pyridinecarboxylate]

- % transfer at 10 μm (10 μm): 31^D %
Structure (SMILES): COC(=O)c1c(C(F)F)nc(C(F)(F)F)c(SC(C)=O)c1CC(C)C [Compound 149, Methyl 5-(Acetylthio)-2-(difluoromethyl)-4-(2-methylpropyl)-6-(trifluoromethyl)-3-pyridinecarboxylate]

- % transfer at 10 μm (10 μm): 95^D %
Structure (SMILES): COC(=O)c1c(C(F)F)nc(C(F)(F)F)c(SC2CCCO2)c1CC(C)C (stereo not drawn) [Compound 150, Methyl 2-(Difluoromethyl)-4-(2-methylpropyl)-5-[(tetrahydro-2-furyl)thio]-6-(trifluoromethyl)-3-pyridinecarboxylate]

More lines, now with the values behind:

Structure (SMILES): COC(=O)c1c(C(F)F)nc(C(F)(F)F)c(C2SCCS2)c1CC(C)C [Compound 61]
- IC50 [1]: 60 µM

Structure (SMILES): CCCc1c(C(=O)OC)c(C(F)F)nc(C(F)(F)F)c1C(=O)SCC [Compound 62]
- IC50 [1]: 60 µM

Structure (SMILES): CCOC(=O)c1c(C(F)(F)F)nc(C(F)(F)F)c(C#N)c1OCC [Compound 64]
- IC50 [2]: 60 µM

Structure (SMILES): CCSc1c(C(F)(F)F)nc(C(F)F)c(C(=O)OC)c1C1CCC1 [Compound 66]
- IC50 [1]: 60 µM

Structure (SMILES): COC(=O)c1c(C(F)F)nc(C(F)(F)F)c(C(=O)OC)c1Cc1ccnc(SC)n1 [Compound 67, Dimethyl 2-(Difluoromethyl)-4-{[(2-methylthio)pyrimidin-4-yl]methyl}-6-(trifluoromethyl)-3,5-pyridinedicarboxylate]
- IC50 [2]: 60 µM

Structure (SMILES): COC(=O)c1c(C(F)F)nc(C(F)(F)F)c(C(=O)SC)c1CC(C)C [Compound 69]
- IC50 [1]: 65 µM

Structure (SMILES): COC(=O)c1c(C(F)F)nc(C(F)(F)F)c(-n2cccc2)c1C1CCC1 [Compound 70, Methyl 2-(Difluoromethyl)-4-cyclobutyl-5-(1-pyrrolyl)-6-(trifluoromethyl)-3-pyridinecarboxylate]
- IC50 [1]: 65 µM

Structure (SMILES): COC(=O)c1c(C(F)F)nc(C(F)(F)F)c(CSC(=O)N(C)C)c1CC(C)C [Compound 79]
- IC50 [2]: 75 µM

Structure (SMILES): CCOP(=O)(OCC)C(=O)c1c(C(F)(F)F)nc(C(F)F)c(C(=O)OC)c1NC(C)C [Compound 85, Methyl 5-[(Diethoxyphosphinyl)carbonyl]-2-(difluoromethyl)-4-(1-methylethylamino)-6-(trifluoromethyl)-3-pyridinecarboxylate]
- IC50 [2]: 90 µM

Structure (SMILES): CCOC(=O)c1c(C(F)(F)F)ncc(C(=O)OC(C)C)c1O [Compound 101, 3-Ethyl 5-Isopropyl 4-hydroxy-2-(trifluoromethyl)-3,5-pyridinedicarboxylate]
- remaining activity at 100 µM [3]: 71%

Structure (SMILES): CCOC(=O)c1cnc(C(F)(F)F)c(Oc2ccccc2)c1O [Compound 109, Ethyl 4-Hydroxy-5-phenoxy-6-(trifluoromethyl)-3-pyridinecarboxylate]
- remaining activity at 100 µM [3]: 76%

Structure (SMILES): COC(=O)c1c(C(F)F)nc(C(F)(F)F)c(-c2ncco2)c1CC(C)C [Compound 110, Methyl 2-(difluoromethyl)-4-(2-methylpropyl)-5-(2-oxazolyl)-6-(trifluoromethyl)-3-pyridinecarboxylate]
- remaining activity at 100 µM [3]: 76%

Structure (SMILES): COC(=O)c1c(C(F)F)nc(C(F)(F)F)c([S+]([O-])CCCl)c1CC(C)C (stereo not drawn) [Compound 111, Methyl 5-(Chloroethylsulfinyl)-2-(difluoromethyl)-4-(2-methylpropyl)-6-(trifluoromethyl)-3-pyridinecarboxylate]
- remaining activity at 100 µM (2 h, read-out: % Transfer @ 100 μm): 78%

Structure (SMILES): CCOC(=O)c1cnc(C(F)(F)F)c(OCC)c1O [Compound 114, Ethyl 5-Ethoxy-4-Hydroxy-6-(trifluoromethyl)-3-pyridinecarboxylate]
- remaining activity at 100 µM [3]: 81%

Structure (SMILES): COC(=O)c1c(C(F)F)nc(C(F)(F)F)c(NC(=O)c2sc(Cl)nc2C(F)(F)F)c1CC(C)C [Compound 117, Methyl {-[2-Chloro-4-(trifluoromethyl)-5-thiazolyl]carbonylamino}-2-(difluoromethyl)-4-(2-methylpropyl)-6-(trifluoromethyl)-3-pyridinecarboxylate]
- remaining activity at 100 µM [3]: 83%

Structure (SMILES): Cc1c(C(F)(F)F)ncc(C(=O)O)c1Sc1ccc(C(C)C)cc1 [Compound 126, 4-(4-Isopropylphenylthio)-5-methyl-6-(trifluoromethyl)-3-pyridinecarboxylic Acid]
- remaining activity at 100 µM [3]: 90%

Structure (SMILES): COC(=O)c1c(OC(C)C)ccnc1C(F)(F)F [Compound 127, Methyl 4-(1-Methylethoxy)-2-(trifluoromethyl)-3-pyridinecarboxylate]
- remaining activity at 100 µM [3]: 90%

Structure (SMILES): COC(=O)c1c(C(F)F)nc(C(F)(F)F)c(SCC(N)=O)c1CC(C)C [Compound 145]
- % Transfer @ 100 μm (100 μm): 64%

Structure (SMILES): CCOC(C)Sc1c(C(F)(F)F)nc(C(F)F)c(C(=O)OC)c1CC(C)C (stereo not drawn) [Compound 146, Methyl 2-(Difluoromethyl)-5-(1-ethoxyethylthio)-4-(2-methylpropyl)-6-(trifluoromethyl)-3-pyridinecarboxylate]
- % transfer at 10 μm (10 μm): 67^D %

Structure (SMILES): COC(=O)c1c(C(F)F)nc(C(F)(F)F)c(C(=O)Sc2ccccc2C(C)C)c1CC(C)C [Compound 157, Methyl 2-(Difluoromethyl)-4-(2-methylpropyl)-5-{[(2-isopropylphenyl)thio]carbonyl}-6-(trifluoromethyl)-3-pyridinecarboxylate]
- IC50 [1]: 60 µM

Structure (SMILES): COC(=O)c1c(C(F)F)nc(C(F)(F)F)c(C(=O)Oc2cccc(OC)c2)c1CC(C)C [Compound 165, 3-Methyl 5-(3-Methoxyphenyl) 2-(Difluoromethyl)-4-(2-methylpropyl)-6-(trifluoromethyl)-3,5-pyridicarboxylate]
- IC50 [2]: > 100 µM and 70 µM

Source: US6794396B2, “Substituted pyridines useful for inhibiting cholesteryl ester transfer protein activity” (Pharmacia Corporation, priority 1998, dated 2004)
